Source: PubChem BioAssay AID464 (The Scripps Research Institute Molecular Screening Center, 2006)
Active and inactive are the calls of the source.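 Rule for the calls: active = Compounds that kill half the cells at a concentration of 5 micromolar or below, from the fitted or estimated CC50; inactive = CC50 above 5 micromolar.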

System: Jurkat E6.1 viability, ATP luminescence, 48 h
Experiment: viability loss in Jurkat T cells – cell-based, ATP luminescence, 48 h, 60K MLSMR, cytotoxicity control, dose response (AID 464)

SMILES | CC50
CN(CC1CCCO1)S(=O)(=O)c1ccc(C(=O)Nc2nc(-c3ccccn3)cs2)cc1 (stereo not drawn) | 10.5 µM (inactive)
CCOC(=O)CS(=O)(=O)c1nc(-c2ccc(F)cc2)cc(C(F)(F)F)n1 | 3.81 µM
COc1cc(NS(=O)(=O)c2ccc(NC(C)=O)cc2)cc(OC)c1 | 14.8 µM (inactive)
COc1ccc(C2=Nn3c(nnc3-c3ccc(OC)cc3)SC2)cc1 | 0.325 µM
O=C(CCCc1nc(-c2ccc(Cl)cc2)no1)Nc1cccnc1 | 5.56 µM (inactive)
O=C(Nc1nc(-c2ccc3c(c2)OCO3)cs1)c1ccncc1 | > 40 µM (inactive)
Cc1ccc2[nH]c3c(NCc4ccco4)ncnc3c2c1 | 18.7 µM (inactive)
O=C(C1CCN(S(=O)(=O)c2cccc3cccnc23)CC1)N1CCN(c2ccc(Cl)cc2)CC1 | 19.5 µM (inactive)
CC(O)CNc1nc2c(c(=O)n(C)c(=O)n2C)n1Cc1cccc(Br)c1 (stereo not drawn) | 22.5 µM (inactive)
COC(=O)C1=C(C)N(c2ccc(Cl)c(Cl)c2)C(=O)C1 | 5.37 µM (inactive)
C/C(N)=C(/C#N)C(=O)CSc1nnnn1-c1ccc(C)cc1C | > 40 µM (inactive)
CCOC(=O)c1[nH]c(C)c(C(=O)Nc2ccccc2C)c1C | 0.63 µM
CCOC(=O)C1(N(CC)CC)Sc2cc(C)ccc2NC1=O (stereo not drawn) | 8.81 µM (inactive)
Cc1c(C(=O)OCC(C)C)[nH]c2c1C(=O)CC(c1ccco1)C2 (stereo not drawn) | 0.462 µM
CCOc1cc(C#N)c(NC(=O)c2cccnc2)cc1OCC | 1.51 µM
c1ccc(-c2cccc(-c3ccccn3)n2)nc1 | 1.08 µM
CS(=O)c1nc(-c2ccc(Br)cc2)cc(-c2ccccc2)c1C#N (stereo not drawn) | 0.631 µM
CCOc1cc(N2CCOCC2)c(OCC)cc1NS(=O)(=O)c1ccc(Cl)s1 | 1.84 µM
COc1cc(NS(=O)(=O)c2ccc(OC)c(C)c2C)c(OC)cc1Cl | 1.62 µM
CNC(=O)N(C1=NCC(C)(C)S1)c1ccc(F)c(Cl)c1 | 10.4 µM (inactive)
COc1cc(C(=O)N2CCN(c3ncnc4sc(C)c(C)c34)CC2)cc(OC)c1OC | 2.36 µM
O=C1N/C(=C\c2ccccc2)c2ccccc21 | > 4.4 µM (inactive)

SMILES | CC50
Cc1c(C(=O)OCc2ccccc2)[nH]c2c1C(=O)CC(c1ccco1)C2 (stereo not drawn) | 0.499 µM
COc1ccc(CNC(=O)c2cc3c(C)nc4ccccc4c3o2)c(OC)c1 | > 40 µM (inactive)
CCCCn1c(CN(C)Cc2ccccc2)nc2c1c(=O)n(C)c(=O)n2C | 14.8 µM (inactive)
Cn1ncnc2c(=O)n(C)c(=O)nc1-2 | 2.06 µM
CS(=O)(=O)c1ncc(Cl)c(C(=O)Nc2ccc(N3CCOCC3)cc2)n1 | 2.61 µM
CCN(C(=O)c1ccc(C(C)(C)C)cc1)c1nnc(Cn2nnc3ccccc32)s1 | > 40 µM (inactive)
Cc1cc(N2CCN(C/C=C/c3ccccc3)CC2)n2ncnc2n1 | > 40 µM (inactive)
COc1cc(NS(=O)(=O)c2ccc(C)cc2C)cc(OC)c1OC | 9.46 µM (inactive)
O=S1(=O)C=C(Sc2nc3cc(Cl)ccc3o2)c2ccccc21 | 9.93 µM (inactive)
O=S(=O)(Nc1cccc2ncccc12)c1cccs1 | 6.36 µM (inactive)
CCCCCCn1c(NCC)nc2c1c(=O)n(C)c(=O)n2C | 2.83 µM
Cc1cccc(N2CCN(C(=O)c3ccncc3)CC2)c1C | 2.78 µM
Cc1ccc2[nH]c(-c3ccccc3)cc(=O)c2c1 | 0.324 µM
CCOc1cc(C(=O)Nc2cnccn2)cc(OCC)c1OCC | 6.16 µM (inactive)
c1ccc2c(CCNc3ncnc4nc[nH]c34)c[nH]c2c1 | 3.85 µM
COc1cccc(C2=CC(c3cc(OC)ccc3OC)n3nnnc3N2)c1 (stereo not drawn) | 11.7 µM (inactive)
Cc1onc(-c2ccccc2)c1C(=O)Nc1sc2c(c1C#N)CCC2 | 15 µM (inactive)
CC(C)OCCCNc1ncnc2c1[nH]c1ccccc12 | 4.91 µM
COc1cc(CN2CCN(c3cccc(Cl)c3)CC2)cc(OC)c1OC | 4.36 µM
CCOC(=O)c1[nH]c(C)c(C(=O)Nc2cc(Cl)ccc2C)c1C | 0.248 µM
O=C(CSC1=NCCS1)Nc1ccnc2ccccc12 | > 40 µM (inactive)
COc1cc(N=Cc2c(O)[nH]c3ccccc23)cc(OC)c1OC | 1.58 µM

SMILES | CC50
Clc1ccc(OCCN2CCN(c3ncnc4sccc34)CC2)cc1 | 0.938 µM
CCC1CCCCN1S(=O)(=O)c1ccc(C(=O)Nc2nnc(-c3cccs3)o2)cc1 (stereo not drawn) | 11.6 µM (inactive)
COc1ccc(Cn2c(=O)oc3ccc(C)cc32)cc1OC | 13.1 µM (inactive)
COCCNc1nc2c(c(=O)n(C)c(=O)n2C)n1Cc1cccc(C)c1 | 25.6 µM (inactive)
Cn1cc(/C(Cc2ccccc2)=N\O)c2ccccc21 | 12.9 µM (inactive)
COC(=O)c1ccc(Cl)c(NS(=O)(=O)c2ccc3c(c2)OCCO3)c1 | 4.81 µM
COc1ccccc1-n1nnnc1S(=O)(=O)Cc1ccc(Cl)cc1 | 3.3 µM
COc1ccc(C(O)c2nc3ccccc3n2C)cc1OC (stereo not drawn) | 5.83 µM (inactive)
CC(=O)N1CCc2c(sc(NC(=O)c3ccc4c(c3)OCCO4)c2C#N)C1 | 2.6 µM
Cc1cc(C)n(-c2nnc3n2N=C(c2c[nH]c4ccccc24)CS3)n1 | > 4.4 µM (inactive)
Cc1nnc(Sc2nc(Sc3nnc(C)s3)nc(N3CCN(C)CC3)n2)s1 | 1.34 µM
O=C(Nc1ccc2c(c1)CCC2)C1CCN(c2c3c(nc4ncnn24)CCC3)CC1 | 4.5 µM
Cc1ccc(C)c2[nH]c(=O)c(CN(CCN3CCCC3)C(=O)Nc3cccc(Cl)c3)cc12 | > 40 µM (inactive)
COc1ccccc1-n1cnc(N)c1C(=O)c1ccccc1 | > 4.4 µM (inactive)
COCCCN1C(=O)c2[nH]nc(-c3ccccc3O)c2C1c1cccc(Cl)c1 (stereo not drawn) | 3.39 µM
COc1cc(C(=O)N2CCN(c3cccc(C)c3C)CC2)cc(OC)c1OC | 0.37 µM
CCCc1cc(C(=O)Nc2cc(Br)ccc2O)no1 | > 40 µM (inactive)
CCn1c(-c2ccc(N(C)C)cc2)nc2ccccc21 | 5.93 µM (inactive)
COc1cc(C2Nc3ccc4ncccc4c3C3=C2C(=O)CCC3)ccc1O (stereo not drawn) | 2.5 µM
CCOC(=O)c1[nH]c(C)c(C(=O)Nc2cccc(Cl)c2C)c1C | 3.8 µM
COc1cc(C2=NOC(C(=O)NCc3ccc(F)cc3)C2)cc(OC)c1OC (stereo not drawn) | 0.347 µM
CC1=C(C(=O)OCc2ccc3c(c2)OCO3)C(c2ccc(Cl)cc2)NC(=O)N1 (stereo not drawn) | 12.6 µM (inactive)

SMILES | CC50
CCc1c(C)nc2ncnn2c1NCCc1ccc(OC)cc1 | 0.901 µM
Cc1ccc(Nc2cc(C)nn2-c2nc(C)cc(=O)[nH]2)cc1 | 1.31 µM
COc1ccccc1N=c1oc2cc(O)ccc2cc1C(N)=O | > 13 µM (inactive)
CC1CCCCN1S(=O)(=O)c1ccc(C(=O)Nc2nnc(-c3cccs3)o2)cc1 (stereo not drawn) | 13.7 µM (inactive)
O=S1(=O)C=C(Sc2nnc(-c3ccccc3)o2)c2ccccc21 | > 13 µM (inactive)
Cc1noc(C)c1CSc1nc2ccccc2c(=O)n1-c1ccc(F)cc1F | > 4.4 µM (inactive)
CC1=C(C(=O)OCc2ccc3c(c2)OCO3)C(c2ccc(F)cc2)NC(=O)N1 (stereo not drawn) | 3.57 µM
COc1ccc(N=Cc2c(O)[nH]c3ccccc23)cc1OC | 11.3 µM (inactive)
COc1cccc(C(=O)Nc2ncc3c(n2)CC(c2ccc(OC)cc2OC)CC3=O)c1 (stereo not drawn) | 8.19 µM (inactive)
COc1ccc(-c2nnc(SCC(=O)Nc3ncc(C)s3)n2-c2ccccc2)cc1OC | 9.26 µM (inactive)
Cc1ccc(S(=O)(=O)Nc2ccc3ncccc3c2)cc1 | 10.7 µM (inactive)
CCOC(=O)C1=C(N)n2c(s/c(=C\c3cccs3)c2=O)=C(C(=O)OCC)C1c1cccs1 (stereo not drawn) | 4.39 µM
COc1ccc(NS(=O)(=O)c2cc(C)ccc2NC(=O)c2cc(C)oc2C)cc1 | 0.191 µM
O=C(c1ccncc1)N(Cc1cc2ccccc2[nH]c1=O)C1CCCCC1 | 5.31 µM (inactive)
Cc1nn(-c2ccccc2)c(C)c1C(=O)Nc1nnc(-c2ccco2)o1 | > 40 µM (inactive)
O=C(Nc1nc(-c2ccccn2)cs1)c1ccc(S(=O)(=O)N2CCCCC2)cc1 | 8.99 µM (inactive)
C=C(C)COc1ccc(-c2[nH]ncc2-c2ccc(OC)c(OC)c2)c(O)c1 | 0.782 µM
CSCCOC(=O)c1[nH]c2c(c1C)C(=O)CC(c1ccco1)C2 (stereo not drawn) | 1.67 µM
Cc1ccsc1C(=O)Nc1nnc(-c2ccco2)o1 | 24.2 µM (inactive)
O=C(Nc1nc2ccccc2[nH]1)c1ccccc1F | 4.79 µM
Nc1c(C(=O)NCc2ccccc2)nnn1Cc1cccc(Cl)c1 | 4.49 µM
COc1cc(C2C3=C(Nc4ncnn42)c2ccccc2CC3)cc(OC)c1OC (stereo not drawn) | 3.67 µM

SMILES | CC50
Cc1nc(NC(C)c2ccccc2)c2oc3ccccc3c2n1 (stereo not drawn) | 18.6 µM (inactive)
Cc1cc(C)n(-c2ccc(C(=O)Nc3ccc(S(=O)(=O)NCc4ccco4)cc3)cc2)n1 | 5.24 µM (inactive)
COc1ccccc1NC(=O)Cc1nn(C)c(=O)c2ccccc12 | 3.35 µM
Cc1ccc(C)c(-n2nnnc2Sc2nnnn2-c2ccccc2)c1 | 5.87 µM (inactive)
CCN1CCN(c2ncc3c(n2)CC(c2cc(OC)c(OC)c(OC)c2)CC3=O)CC1 (stereo not drawn) | 2.26 µM
CCOc1ccccc1NC(=O)Cn1nnc(C(=O)NCc2ccco2)c1N | 0.078 µM
O=C(Nc1ccc(N2CCCC2)cc1)c1cccc(F)c1 | 8.17 µM (inactive)
COc1ccc(C2NC(=O)NC3=C2CCc2ccccc23)cc1 (stereo not drawn) | 4.81 µM
CSC(=Nc1ccccc1)c1c(O)n(C)c(=O)n(C)c1=O | 17.8 µM (inactive)
COc1cccc(OCc2nc3ncc(Br)cc3[nH]2)c1 | 1.11 µM
Cc1ccc(-c2csc3ncnc(Sc4nnc(CN5CCCCCC5=O)o4)c23)cc1 | 5.28 µM (inactive)
CCN(CC)c1ccc(-c2nn3c(-c4n[nH]c5c4CCC5)nnc3s2)cc1 | 0.895 µM
CCCn1nc(C(=O)N2CC(=O)Nc3ccccc32)c2ccccc2c1=O | 2.81 µM
CC(Oc1ccc(Cl)cc1Cl)C(=O)Nc1ccncc1 (stereo not drawn) | 7.07 µM (inactive)
CC(=O)c1cc2c(cc1NS(=O)(=O)c1ccc(C)cc1)OCCO2 | 5.05 µM (inactive)
CN(C)c1ccc(C(=O)c2ccc(N(C)C)c(N)c2)cc1N | 8.53 µM (inactive)
O=C(NCc1cccc(F)c1)c1noc2c1CCCC2 | 8.73 µM (inactive)
N#C/C(=C/c1ccc(N2CCCCCC2)o1)c1ccc(F)cc1 | > 13 µM (inactive)
O=C(NCc1cccs1)c1nc2c(nnn2Cc2ccccc2Cl)c(=O)[nH]1 | 14.8 µM (inactive)
COc1ccccc1C1C=C(c2ccccc2)Nc2nnnn21 (stereo not drawn) | > 13 µM (inactive)
